Where two headings read alike, the source gives them in different places.
Columns and labels:
[1] = test system: E58 mesothelioma cells; test: MTT cell survival assay, E58 mesothelioma cells; assay type: cell-based, human; conditions: for Synergy index CI at ED50, E58 / Synergy index CI at ED75, E58 / Synergy index CI at ED90, E58: named drug combined with DS + Cu
Procedure: (§1) Separate incubations were performed with pemetrexed, DS/Cu (disulfiram/copper gluconate) and cisplatin for 3 days. Cell survival was determined via an MTT assay.

[2] = test system: MSTO mesothelioma cells; test: MTT cell survival assay, MSTO mesothelioma cells; assay type: cell-based, human; conditions: for IC50: MSTO cells, 3 days incubation, MTT, read-out: IC50s (nM), inhibition of mesothelioma growth, MSTO; for Synergy index CI at ED50, MSTO / Synergy index CI at ED75, MSTO / Synergy index CI at ED90, MSTO: named drug combined with DS + Cu
Procedure: as §1

[3] = test system: A2780 ovarian cancer cells; test: Cell survival assay, A2780 ovarian cancer cells; assay type: cell-based, human
[4] = test system: SKOV-3 ovarian cancer cells; test: Cell survival assay, SKOV-3 ovarian cancer cells; assay type: cell-based, human; conditions: cisplatin (CDDP) combined with DS + Cu
[5] = test system: 2591 mesothelioma cells; test: MTT cell survival assay, 2591 mesothelioma cells; assay type: cell-based, human; conditions: for IC50: 2591 cells, 3 days incubation, MTT, read-out: IC50s (nM), inhibition of mesothelioma growth, 2591; for Synergy index CI at ED50, 2591 / Synergy index CI at ED75, 2591 / Synergy index CI at ED90, 2591: named drug combined with DS + Cu
Procedure: as §1

[6] = test system: Ju77 mesothelioma cells; test: MTT cell survival assay, Ju77 mesothelioma cells; assay type: cell-based, human; conditions: for IC50: Ju77 cells, 3 days incubation, MTT, read-out: IC50s (nM), inhibition of mesothelioma growth, Ju77; for Synergy index CI at ED50, Ju77 / Synergy index CI at ED75, Ju77 / Synergy index CI at ED90, Ju77: named drug combined with DS + Cu
Procedure: as §1

[7] = test system: SKVO-3 ovarian cancer cells; test: Peritoneal ovarian cancer model in CD1 nude mice; assay type: in vivo, mouse
Procedure: (§2) MSTO mesothelioma cells and SKVO-3 ovarian cancer cells were cultured in a DMEM medium containing 10% fetal calf serum supplemented with 10 mg/ml streptomycin and 2 mmol/L L-glutamine at 37° C. under a 5% CO2 atmosphere.
(§3) MSTO mesothelioma cells and SKVO-3 ovarian cancer cells were injected at a rate of 3×10^6/animal into female CD1 nude mice and animals were randomly divided into two groups (10 animals/group). […] Drug administration was performed three times per week. The mice were weighed three times per week. Once the experiment was complete, the animals were sacrificed via cervical dislocation. The abdominal cavities of all mice were opened to observe and assess ascites formation and abdominal wall tumors.

[8] = oral dose of 500 mg; cited from earlier work
[9] = absorbed disulfiram in the bloodstream; cited from earlier work
[10] = test system: MSTO mesothelioma cells; test: Peritoneal MSTO mesothelioma model in CD1 nude mice; assay type: in vivo, mouse
Procedure: as §2, §3

[11] = test system: S180 ascites tumor cells; conditions: for Formation of ascites and masses at laparotomy: three weeks after cell injection
Procedure: S180 ascites cells were purchased from the Chinese Academy of Sciences Shanghai Cell Bank and cultured in a DMEM medium containing 10% fetal calf serum supplemented with 10 mg/ml streptomycin and 2 mmol/L L-glutamine at 37° C. under a 5% CO2 atmosphere.
S-180 cells were injected at a rate of 2.5×10^6/animal into the abdominal cavity of male Kunming mice and the animals were randomly divided into two groups (8 animals/group). […] Drug administration was performed three times per week. The mice were weighed three times per week. Once the experiment was complete, the animals were sacrificed via cervical dislocation. The abdominal cavities of all mice were opened to observe and assess ascites formation and abdominal wall tumors.

[12] = Anticancer activity of disulfiram metabolites (unpublished data); conditions: unpublished data of the applicant
[13] = disulfiram 40 μg/animal i.p. + CuGlu oral, as of Day 90
[14] = disulfiram 5 mg/kg i.p. + CuGlu 5 mg/kg oral, three times per week, Day 21

[NH2][Pt]([NH2])([Cl])[Cl] [CDDP, cisplatin]
Synergy index CI at ED50, E58 [1]: 0.385 | Synergy index CI at ED75, E58 [1]: 0.355 | Synergy index CI at ED90, E58 [1]: 0.449 | IC50 [2]: 4590 nM | Synergy index CI at ED50, MSTO [2]: 0.567 | Synergy index CI at ED75, MSTO [2]: 0.320 | Synergy index CI at ED90, MSTO [2]: 0.209 | IC50 ([3]; A2780 cells, 3 days incubation, read-out: IC50s (nM), ovarian cancer cells, A2780): 4590 nM | Synergy index CI at ED50, A2780 ([3]; cisplatin (CDDP) combined with DS + Cu, ED50, A2780): 0.567 | Synergy index CI at ED75, A2780 ([3]; cisplatin (CDDP) combined with DS + Cu, ED75, A2780): 0.320 | Synergy index CI at ED90, A2780 ([3]; cisplatin (CDDP) combined with DS + Cu, ED90, A2780): 0.209 | Synergy index CI at ED50, SKOV-3 ([4]; ED50): 0.389 | Synergy index CI at ED75, SKOV-3 ([4]; ED75): 0.346 | Synergy index CI at ED90, SKOV-3 ([4]; ED90): 0.319 | IC50 [5]: 9160 nM | Synergy index CI at ED50, 2591 [5]: 0.777 | Synergy index CI at ED75, 2591 [5]: 0.868 | Synergy index CI at ED90, 2591 [5]: 1.170 | IC50 [6]: 8790 nM | Synergy index CI at ED50, Ju77 [6]: 0.389 | Synergy index CI at ED75, Ju77 [6]: 0.346 | Synergy index CI at ED90, Ju77 [6]: 0.319

Nc1nc2[nH]cc(CCc3ccc(C(=O)N[C@@H](CCC(=O)O)C(=O)O)cc3)c2c(=O)[nH]1 [PMTX, pemetrexed]
IC50 ([1]; Homo sapiens, 72 h, E58 cells, 3 days incubation, MTT, read-out: IC50s (nM), inhibition of mesothelioma growth, E58): > 1000 nM | Synergy index CI at ED50, E58 [1]: 0.383 | Synergy index CI at ED75, E58 [1]: 0.384 | Synergy index CI at ED90, E58 [1]: 0.503 | IC50 ([2]; Homo sapiens, 72 h): 920 nM | Synergy index CI at ED50, MSTO [2]: 0.399 | Synergy index CI at ED75, MSTO [2]: 0.196 | Synergy index CI at ED90, MSTO [2]: 0.102 | IC50 ([5]; Homo sapiens, 72 h): > 1000 nM | Synergy index CI at ED50, 2591 [5]: 0.341 | Synergy index CI at ED75, 2591 [5]: 0.253 | Synergy index CI at ED90, 2591 [5]: 0.603 | IC50 ([6]; Homo sapiens, 72 h): > 1000 nM | Synergy index CI at ED50, Ju77 [6]: 0.308 | Synergy index CI at ED75, Ju77 [6]: 0.431 | Synergy index CI at ED90, Ju77 [6]: 0.603

CCN(CC)C(=S)SSC(=S)N(CC)CC [disulfiram]
Survival rate, ovarian cancer mice ([7]; disulfiram 40 μg/animal (2 mg/kg) i.p. + CuGlu 5 mg/kg oral, Day 60): 90% | Cancer nodules / masses, ovarian cancer mice ([7]; disulfiram 40 μg/animal i.p. + CuGlu oral, Day 60): only a small number of masses had formed | Ascites, ovarian cancer mice ([7]; disulfiram 40 μg/animal i.p. + CuGlu oral, as of Day 60): did not reveal any ascites | Blood concentration [8]: below the detection limit | Half-life of reduction by the glutathione reductase system in red blood cells [9]: 4 min | Survival rate, mesothelioma mice ([10]; disulfiram 40 μg/animal (2 mg/kg) i.p. + CuGlu 5 mg/kg oral, Day 90): 60% | Ascites, mesothelioma mice [10, 13]: did not reveal any ascites | Cancer nodules / masses, mesothelioma mice [10, 13]: only a small number of masses had formed | Mean ascites volume per mouse [11, 14]: 0 ml per mouse | Number of cancer nodules per mouse [11, 14]: 0 nodules per mouse | Formation of ascites and masses at laparotomy ([11]; disulfiram 5 mg/kg i.p. + CuGlu 5 mg/kg oral): no formation of ascites or masses was observed | Formation of ascites and masses at laparotomy ([11]; disulfiram 5 mg/kg i.p. + CuGlu 5 mg/kg oral, listed as DS): no formation of ascites or tumor nodules | Effect on peritoneal metastasis ([11]; disulfiram 5 mg/kg i.p. with oral copper gluconate, S180 tumor-bearing mice): completely eliminate the animals' peritoneal metastasis | Body weight compared with control group ([11]; one week after injection of the cells): significantly lower than that of mice in the control group

methylated disulfiram
Anticancer activity [12]: completely loses its anticancer activity

CCN(CC)C(=S)SC1OC(C(=O)O)C(O)C(O)C1O (stereo not shown) [glucuronic acid DDC]
Anticancer activity [12]: completely lack any anticancer activity

CCN(CC)C(=S)SC [methyl DDC]
Anticancer activity [12]: completely lack any anticancer activity
